In article PMC8732328 (Nature microbiology, 2021):

test system: all eight Enterococcus or Streptococcus strains; assay: MIC against eight Enterococcus or Streptococcus strains; type: cell-based, Enterococcus and Streptococcus spp.

Compound	activity against all eight Enterococcus or Streptococcus strains
nisin	active
lysobactin	active
ramoplanin	active
CN[C@H](CC(C)C)C(=O)N[C@H]1C(=O)N[C@@H](CC(N)=O)C(=O)N[C@H]2C(=O)N[C@H]3C(=O)N[C@H](C(=O)N[C@H](C(=O)O)c4cc(O)cc(O)c4-c4cc3ccc4O)[C@H](O)c3ccc(c(Cl)c3)Oc3cc2cc(c3O[C@@H]2O[C@H](CO)[C@@H](O)[C@H](O)[C@H]2O[C@H]2C[C@](C)(N)[C@H](O)[C@H](C)O2)Oc2ccc(cc2Cl)[C@H]1O [Van, vancomycin]	active
